# Source: ChEMBL document CHEMBL4190383, “Hit discovery of Mycobacterium tuberculosis inosine 5'-monophosphate dehydrogenase, GuaB2, inhibitors” (Bioorg Med Chem Lett, 2018)
# pIC50, pKi: −log10 of the molar value. Calls of active or inactive are those of the source. The rule behind the calls is not given here.
# Key:
# [1] = tested on: Mycobacterium tuberculosis; test: Antimicrobial activity against Mycobacterium tuberculosis H37Rv by alamar blue assay; assay type: functional
# Escherichia coli = test: Growth inhibition of Escherichia coli at 32 ug/ml; assay type: functional; conditions: read-out: GI
# [2] = tested on: Mycobacterium tuberculosis; test: Inhibition of Mycobacterium tuberculosis GuaB2 at 50 uM
# Acinetobacter baumannii = test: Growth inhibition of Acinetobacter baumannii at 32 ug/ml; assay type: functional; conditions: read-out: GI
# Klebsiella pneumoniae = test: Growth inhibition of Klebsiella pneumoniae at 32 ug/ml; assay type: functional; conditions: read-out: GI
# Candida albicans = test: Growth inhibition of Candida albicans at 32 ug/ml; assay type: functional; conditions: read-out: GI
# [3] = target: Inosine-5'-monophosphate dehydrogenase 2 (Homo sapiens) (UniProt P12268); test: Inhibition of human IMPDH2 at 10 uM
# Chain of Inosine-5'-monophosphate dehydrogenase 2 (Homo sapiens) (P12268 2-514 limits assumed): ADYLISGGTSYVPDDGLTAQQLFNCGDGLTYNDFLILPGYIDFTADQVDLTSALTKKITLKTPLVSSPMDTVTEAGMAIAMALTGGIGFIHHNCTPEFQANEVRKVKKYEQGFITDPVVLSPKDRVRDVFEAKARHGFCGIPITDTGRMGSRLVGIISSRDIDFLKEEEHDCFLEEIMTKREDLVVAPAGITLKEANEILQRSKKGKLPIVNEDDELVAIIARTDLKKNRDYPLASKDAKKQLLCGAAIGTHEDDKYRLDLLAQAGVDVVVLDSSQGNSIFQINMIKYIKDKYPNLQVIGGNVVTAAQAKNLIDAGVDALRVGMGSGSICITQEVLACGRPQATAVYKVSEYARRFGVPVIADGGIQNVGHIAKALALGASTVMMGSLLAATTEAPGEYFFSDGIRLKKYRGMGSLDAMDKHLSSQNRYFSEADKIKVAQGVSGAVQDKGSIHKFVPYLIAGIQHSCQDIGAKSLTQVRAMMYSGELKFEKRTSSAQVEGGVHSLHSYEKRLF
# [4] = tested on: Mycobacterium tuberculosis; test: Antimicrobial activity against Mycobacterium tuberculosis SRMV2.6 H37Rv by alamar blue assay; assay type: functional
# Cryptococcus neoformans = test: Growth inhibition of Cryptococcus neoformans var. grubii at 32 ug/ml; assay type: functional; conditions: read-out: GI
# Staphylococcus aureus = test: Growth inhibition of methicillin-resistant Staphylococcus aureus at 32 ug/ml; assay type: functional; conditions: read-out: GI
# Pseudomonas aeruginosa = test: Growth inhibition of Pseudomonas aeruginosa at 32 ug/ml; assay type: functional; conditions: read-out: GI
# [5] = tested on: Mycobacterium tuberculosis; test: Antimicrobial activity against Mycobacterium tuberculosis H37Rv in presence of 0.08 to 5 ng/ml anhydrotetracycline-induced guaB2 gene silencing by alamar blue assay; assay type: functional, organism-based
# [6] = Inhibition of Mycobacterium tuberculosis GuaB2
# [7] = Octanol/water partition coefficient , logP of the compound; assay type: physicochemical
# [8] = Inhibition of Mycobacterium tuberculosis GuaB2 expressed in Escherichia coli BL21(DE3) using [2-2H]-IMP or [2-1H]-IMP and NAD+ incubated for 2 hrs by 1H NMR method
compound,measurement,setting,value
Fc1ccccc1Cn1nncc1COc1ccc2ccccc2c1,MIC90,[1],> 100 µM
O=C(COc1cc(Cl)ccc1Oc1ccc(Cl)cc1Cl)Nc1ccc2c(c1)COC2=O,MIC90,[1],> 100 µM
Cc1nc2sccc2c(=O)n1NC(=O)Nc1ccc(F)cc1,MIC90,[1],> 100 µM
COc1ccc(NC(=O)Nc2ccc(-c3cnco3)cc2)cc1,MIC90,[1],> 100 µM
COc1cc(-c2oc3ccccc3c(=O)c2OCC(=O)Nc2ccc3c(c2)COC3=O)cc(OC)c1OC,MIC90,[1],> 100 µM
COc1cccc(NC(=O)Nn2c(C)nc3ccsc3c2=O)c1,MIC90,[1],> 100 µM
O=C(COc1ccc(C(=O)/C=C/c2ccc([N+](=O)[O-])cc2)cc1)Nc1ccc2c(c1)COC2=O,MIC90,[1],> 100 µM
COc1ccc(NC(=O)Nn2c(C)nc3ccsc3c2=O)cc1,MIC90,[1],> 100 µM
Cc1ccc(NC(=O)Nn2c(C)nc3sccc3c2=O)cc1Cl,MIC90,[1],> 100 µM
O=C(O)CCCC(=O)Nc1ccc(N2CC3(COC3)C2)c(F)c1,MIC90,[1],> 100 µM
COc1c(C)c2c(c(O)c1C/C=C(\C)CCC(=O)N[C@@H](C)c1ccccc1)C(=O)OC2,MIC90,[1],> 100 µM
COc1cccc(Cn2nncc2COc2ccc(-c3nnc(C)o3)cc2)c1,inhibition of growth at 32 µg/mL,Escherichia coli,-7.43%
same,inhibition,[2],35%
same,inhibition of growth at 32 µg/mL,Acinetobacter baumannii,-15.3%
same,inhibition of growth at 32 µg/mL,Klebsiella pneumoniae,-4.35%
same,inhibition of growth at 32 µg/mL,Candida albicans,3.07%
same,inhibition,[3],0.1%
same,MIC90,[1],50 µM
same,MIC90,[4],100 µM
same,inhibition of growth at 32 µg/mL,Cryptococcus neoformans,-59.4%
same,inhibition of growth at 32 µg/mL,Staphylococcus aureus,5.5%
same,inhibition of growth at 32 µg/mL,Pseudomonas aeruginosa,1.44%
Cc1nc2sccc2c(=O)n1NC(=O)Nc1ccc2c(c1)OCO2,MIC90,[1],> 100 µM
COc1cccc(NC(=O)Nn2c(C)nc3sccc3c2=O)c1,MIC90,[1],> 100 µM
CC(C(=O)Nc1ccc2c(c1)COC2=O)c1ccc(C(=O)c2ccccc2)cc1 (centres undefined),inhibition of growth at 32 µg/mL,Escherichia coli,-2.97%
same,inhibition,[2],95.2%
same,Activity,[5],Active
same,inhibition of growth at 32 µg/mL,Acinetobacter baumannii,1.89%
same,inhibition of growth at 32 µg/mL,Klebsiella pneumoniae,15.6%
same,inhibition of growth at 32 µg/mL,Candida albicans,5.25%
same,pIC50,[6],5.21
same,logP,[7],3.67
same,inhibition,[3],23%
same,MIC90,[1],100 µM
same,MIC90,[4],100 µM
same,inhibition of growth at 32 µg/mL,Cryptococcus neoformans,-94.7%
same,inhibition of growth at 32 µg/mL,Staphylococcus aureus,25.2%
same,inhibition of growth at 32 µg/mL,Pseudomonas aeruginosa,3.08%
CCOC(=O)C1CCN(CC(=O)Nc2ccc3c(c2)COC3=O)CC1,MIC90,[1],> 100 µM
Fc1ccc(Cn2nncc2COc2ccc3ccccc3c2)cc1,MIC90,[1],> 100 µM
Cc1nc2sccc2c(=O)n1NC(=S)Nc1ccccc1F,MIC90,[1],> 100 µM
O=C(O)/C=C\C(=O)NC12CC3CC(CC(C3)C1)C2,MIC90,[1],> 100 µM
O=C1OCc2cc(NC(=O)c3cccnc3Cl)ccc21,MIC90,[1],> 100 µM
O=C(COc1ccc2ccccc2c1)Nc1ccc2c(c1)COC2=O,MIC90,[1],> 100 µM
Cc1nnc(-c2ccc(OCc3cnnn3Cc3ccccc3F)cc2)o1,inhibition of growth at 32 µg/mL,Escherichia coli,-5.41%
same,inhibition,[2],71%
same,inhibition of growth at 32 µg/mL,Acinetobacter baumannii,-8.76%
same,inhibition of growth at 32 µg/mL,Klebsiella pneumoniae,-2.49%
same,inhibition of growth at 32 µg/mL,Candida albicans,2.24%
same,logP,[7],2.5 to 3.5
same,inhibition,[3],0.1%
same,MIC90,[1],100 µM
same,MIC90,[4],> 100 µM
same,inhibition of growth at 32 µg/mL,Cryptococcus neoformans,-88.2%
same,inhibition of growth at 32 µg/mL,Staphylococcus aureus,7.55%
same,inhibition of growth at 32 µg/mL,Pseudomonas aeruginosa,0.96%
COc1ccccc1NC(=O)Nn1c(C)nc2sccc2c1=O,MIC90,[1],> 100 µM
CC(=O)c1ccc(OCC(=O)Nn2c(C)nc3sccc3c2=O)cc1,MIC90,[1],> 100 µM
O=C(COc1ccc(C(=O)/C=C/c2cccs2)cc1)Nc1ccc2c(c1)COC2=O,MIC90,[1],> 100 µM
O=C(O)CCCC(=O)N1CCn2c(nnc2C(F)(F)F)C1,MIC90,[1],> 100 µM
Cc1cc(OCC(=O)Nc2ccc3c(c2)COC3=O)ccc1[N+](=O)[O-],MIC90,[1],> 100 µM
Cc1nnc(-c2ccc(OCc3cnnn3Cc3ccc(Cl)cc3)cc2)o1,MIC90,[1],> 100 µM
Cc1ccccc1NC(=S)Nc1ccc(-c2cc(Cl)cc(Cl)c2)cn1,MIC90,[1],> 100 µM
COC(=O)c1ccc(OCC(=O)Nc2ccc3c(c2)COC3=O)cc1,MIC90,[1],> 100 µM
Cc1nnc(-c2ccc(OCc3cnnn3Cc3cccc(Cl)c3)cc2)o1,inhibition of growth at 32 µg/mL,Escherichia coli,-5.62%
same,inhibition,[2],inactive
same,inhibition of growth at 32 µg/mL,Acinetobacter baumannii,-12.1%
same,inhibition of growth at 32 µg/mL,Klebsiella pneumoniae,2.15%
same,inhibition of growth at 32 µg/mL,Candida albicans,-0.27%
same,inhibition,[3],0.1%
same,MIC90,[1],50 µM
same,MIC90,[4],> 100 µM
same,inhibition of growth at 32 µg/mL,Cryptococcus neoformans,-76.2%
same,inhibition of growth at 32 µg/mL,Staphylococcus aureus,10.3%
same,inhibition of growth at 32 µg/mL,Pseudomonas aeruginosa,5.84%
COc1ccc(-c2ccc(NC(=O)CCC(=O)O)cc2)cn1,MIC90,[1],> 100 µM
O=C(Cn1c(-c2cscn2)nc2ccccc21)c1ccc(Br)cc1,pKi,[8],6.26
CC(C)Cc1ccc(C(C)C(=O)Nc2ccc3c(c2)COC3=O)cc1 (centres undefined),MIC90,[1],> 100 µM
Cc1nc2sccc2c(=O)n1NC(=O)Nc1cccc([N+](=O)[O-])c1,MIC90,[1],> 100 µM
N#Cc1ccc(Cn2nncc2COc2cccc3ccccc23)cc1,inhibition,[2],43.5%
same,pIC50,[6],3.76
same,inhibition,[3],14.8%
same,MIC90,[1],100 µM
same,MIC90,[4],> 100 µM
